Experiments:
ISC-enriched organoids [1] = test: Primary screen, 384-well 2.5-D organoid differentiation (ENR+CD, 6 days): basal lysozyme secretion (LYZ.NS); type: cell-based, murine; details: primary screen; for Dose.FC.LYZ.NS: FC vs plate median; for Dose.FC.LYZ.NS (log 2 fold change): vs plate median; for SSMD.LYZ.NS: strictly standardized mean difference
Description: (§1) High-throughput screening.

ISC-enriched organoids [2] = test: Primary screen, 384-well 2.5-D organoid differentiation (ENR+CD, 6 days, Target Selective Inhibitor Library, vs whole-plate median): ATP (CellTiter-Glo 3D, CTG); details: primary screen; for Dose.FC.CTG: FC vs plate median; for Dose.FC.CTG (log 2 fold change): vs plate median; for SSMD.CTG: strictly standardized mean difference
ISC-enriched organoids [3] = test: Primary screen, 384-well 2.5-D organoid differentiation (ENR+CD, 6 days): carbachol-induced lysozyme secretion (LYZ.S); type: cell-based, murine; details: primary screen; for Dose.FC.LYZ.S: FC vs plate median; for Dose.FC.LYZ.S (log 2 fold change): vs plate median; for Z.LYZ.S: standard z score; for SSMD.LYZ.S: strictly standardized mean difference
Description: as §1

[4] = dose 0.08 uM, standard z score of FC
[5] = dose 0.40 uM, standard z score of FC
[6] = dose 2.00 uM, standard z score of FC
[7] = dose 10.00 uM, standard z score of FC
[8] = Dose 10.00 uM, standard z score
[9] = 1st of the 4 dose lines of the treatment (dose not given)
[10] = 2nd of the 4 dose lines of the treatment (dose not given)
[11] = 3rd of the 4 dose lines of the treatment (dose not given)
[12] = 4th of the 4 dose lines of the treatment (dose not given)

COc1cc(N2CCN(C)CC2)ccc1Nc1nccc(-c2cn(C)c3cnccc23)n1 [AZ191]
Dose.FC.LYZ.NS (ISC-enriched organoids [1]; dose 0.08 uM, ENR+CD 6 days): 0.128 log 2 fold change | Z.LYZ.NS (ISC-enriched organoids [1]; [4]): 1.111 | Dose.FC.LYZ.NS (ISC-enriched organoids [1]; dose 0.40 uM, ENR+CD 6 days): 0.082 log 2 fold change | Z.LYZ.NS (ISC-enriched organoids [1]; [5]): 0.717 | Dose.FC.LYZ.NS (ISC-enriched organoids [1]; dose 2.00 uM, ENR+CD 6 days): 0.058 log 2 fold change | Z.LYZ.NS (ISC-enriched organoids [1]; [6]): 0.507 | Dose.FC.LYZ.NS (ISC-enriched organoids [1]; dose 10.00 uM, ENR+CD 6 days): −0.148 log 2 fold change | Z.LYZ.NS (ISC-enriched organoids [1]; [7]): −1.289 | Dose.FC.CTG (ISC-enriched organoids [2]; dose 0.08 uM, ENR+CD 6 days): 0.292 log 2 fold change | Z.CTG (ISC-enriched organoids [2]; [4]): 0.697 | Dose.FC.CTG (ISC-enriched organoids [2]; dose 0.40 uM, ENR+CD 6 days): 0.337 log 2 fold change | Z.CTG (ISC-enriched organoids [2]; [5]): 0.804 | Dose.FC.CTG (ISC-enriched organoids [2]; dose 2.00 uM, ENR+CD 6 days): 0.150 log 2 fold change | Z.CTG (ISC-enriched organoids [2]; [6]): 0.358 | Dose.FC.CTG (ISC-enriched organoids [2]; dose 10.00 uM, ENR+CD 6 days): −0.533 log 2 fold change | Z.CTG (ISC-enriched organoids [2]; [7]): −1.272 | Dose.FC.LYZ.S (ISC-enriched organoids [3]; dose 0.08 uM, ENR+CD 6 days): 0.143 log 2 fold change | Dose.FC.LYZ.S (ISC-enriched organoids [3]; dose 0.40 uM, ENR+CD 6 days): 0.199 log 2 fold change | Dose.FC.LYZ.S (ISC-enriched organoids [3]; dose 2.00 uM, ENR+CD 6 days): 0.097 log 2 fold change | Dose.FC.LYZ.S (ISC-enriched organoids [3]; dose 10.00 uM, ENR+CD 6 days): −0.200 log 2 fold change

Cc1nnc(C(=O)NC(C)(C)c2nc(C(=O)NCc3ccc(F)cc3)c(O)c(=O)n2C)o1 [Raltegravir (MK-0518)]
Z.LYZ.NS (standard z score) (ISC-enriched organoids [1]; Dose 0.08 uM): 1.627 | Dose.FC.LYZ.NS (log 2 fold change) (ISC-enriched organoids [1]; Dose 0.08 uM): 0.187 | Z.LYZ.NS (standard z score) (ISC-enriched organoids [1]; Dose 0.40 uM): 0.302 | Dose.FC.LYZ.NS (log 2 fold change) (ISC-enriched organoids [1]; Dose 0.40 uM): 0.035 | Z.LYZ.NS (standard z score) (ISC-enriched organoids [1]; Dose 2.00 uM): 0.254 | Dose.FC.LYZ.NS (log 2 fold change) (ISC-enriched organoids [1]; Dose 2.00 uM): 0.029 | Z.LYZ.NS (standard z score) (ISC-enriched organoids [1]; Dose 10.00 uM): 0.366 | Dose.FC.LYZ.NS (log 2 fold change) (ISC-enriched organoids [1]; Dose 10.00 uM): 0.042 | Z.CTG (standard z score) (ISC-enriched organoids [2]; Dose 0.08 uM): 0.258 | Dose.FC.CTG (log 2 fold change) (ISC-enriched organoids [2]; Dose 0.08 uM): 0.108 | Z.CTG (standard z score) (ISC-enriched organoids [2]; Dose 0.40 uM): 0.224 | Dose.FC.CTG (log 2 fold change) (ISC-enriched organoids [2]; Dose 0.40 uM): 0.094 | Z.CTG (standard z score) (ISC-enriched organoids [2]; Dose 2.00 uM): 0.471 | Dose.FC.CTG (log 2 fold change) (ISC-enriched organoids [2]; Dose 2.00 uM): 0.197 | Z.CTG (standard z score) (ISC-enriched organoids [2]; Dose 10.00 uM): 0.407 | Dose.FC.CTG (log 2 fold change) (ISC-enriched organoids [2]; Dose 10.00 uM): 0.170 | Dose.FC.LYZ.S (log 2 fold change) (ISC-enriched organoids [3]; Dose 0.08 uM): 0.137 | Dose.FC.LYZ.S (log 2 fold change) (ISC-enriched organoids [3]; Dose 0.40 uM): 0.037 | Dose.FC.LYZ.S (log 2 fold change) (ISC-enriched organoids [3]; Dose 2.00 uM): 0.122 | Dose.FC.LYZ.S (log 2 fold change) (ISC-enriched organoids [3]; Dose 10.00 uM): 0.183

O=C(Nc1ccccc1)N1CCN(c2nc(-c3ccccc3)ns2)CC1 [JNJ-1661010]
Dose.FC.LYZ.NS (ISC-enriched organoids [1]; Dose 0.08 uM): 0.122 log 2 fold change | Z.LYZ.NS (ISC-enriched organoids [1]; Dose 0.08 uM, standard z score): 1.066 | Dose.FC.LYZ.NS (ISC-enriched organoids [1]; Dose 0.40 uM): 0.075 log 2 fold change | Z.LYZ.NS (ISC-enriched organoids [1]; Dose 0.40 uM, standard z score): 0.653 | Dose.FC.LYZ.NS (ISC-enriched organoids [1]; Dose 2.00 uM): 0.103 log 2 fold change | Z.LYZ.NS (ISC-enriched organoids [1]; Dose 2.00 uM, standard z score): 0.897 | Dose.FC.LYZ.NS (ISC-enriched organoids [1]; Dose 10.00 uM): 0.047 log 2 fold change | Z.LYZ.NS (ISC-enriched organoids [1]; [8]): 0.406 | SSMD.LYZ.NS (ISC-enriched organoids [1]; [9]): 0.805 | SSMD.LYZ.NS (ISC-enriched organoids [1]; [10]): 0.332 | SSMD.LYZ.NS (ISC-enriched organoids [1]; [11]): 0.332 | SSMD.LYZ.NS (ISC-enriched organoids [1]; [12]): 0.237 | Dose.FC.CTG (ISC-enriched organoids [2]; Dose 0.08 uM): −0.094 log 2 fold change | Z.CTG (ISC-enriched organoids [2]; Dose 0.08 uM, standard z score): −0.225 | Dose.FC.CTG (ISC-enriched organoids [2]; Dose 0.40 uM): −0.262 log 2 fold change | Z.CTG (ISC-enriched organoids [2]; Dose 0.40 uM, standard z score): −0.625 | Dose.FC.CTG (ISC-enriched organoids [2]; Dose 2.00 uM): −0.055 log 2 fold change | Z.CTG (ISC-enriched organoids [2]; Dose 2.00 uM, standard z score): −0.131 | Dose.FC.CTG (ISC-enriched organoids [2]; Dose 10.00 uM): −0.145 log 2 fold change | Z.CTG (ISC-enriched organoids [2]; [8]): −0.346 | SSMD.CTG (ISC-enriched organoids [2]; [9]): −0.169 | SSMD.CTG (ISC-enriched organoids [2]; [10]): −0.659 | SSMD.CTG (ISC-enriched organoids [2]; [11]): −0.113 | SSMD.CTG (ISC-enriched organoids [2]; [12]): −0.309 | Dose.FC.LYZ.S (ISC-enriched organoids [3]; Dose 0.08 uM): 0.135 log 2 fold change | Dose.FC.LYZ.S (ISC-enriched organoids [3]; Dose 0.40 uM): 0.041 log 2 fold change | Dose.FC.LYZ.S (ISC-enriched organoids [3]; Dose 2.00 uM): −0.063 log 2 fold change | Dose.FC.LYZ.S (ISC-enriched organoids [3]; Dose 10.00 uM): −0.068 log 2 fold change | Z.LYZ.S (ISC-enriched organoids [3]; [9]): 0.873 | Z.LYZ.S (ISC-enriched organoids [3]; [10]): 0.263 | Z.LYZ.S (ISC-enriched organoids [3]; [11]): −0.408 | Z.LYZ.S (ISC-enriched organoids [3]; [12]): −0.441 | SSMD.LYZ.S (ISC-enriched organoids [3]; [9]): 0.612 | SSMD.LYZ.S (ISC-enriched organoids [3]; [10]): 0.250 | SSMD.LYZ.S (ISC-enriched organoids [3]; [11]): −0.454 | SSMD.LYZ.S (ISC-enriched organoids [3]; [12]): −0.449

CN(C)Cc1ccc(-c2nc3cccc4c3n2CCNC4=O)cc1 [AG-14361]
Dose.FC.LYZ.NS (ISC-enriched organoids [1]; dose 0.08 uM, ENR+CD 6 days): 0.152 log 2 fold change | Z.LYZ.NS (ISC-enriched organoids [1]; [4]): 1.324 | Dose.FC.LYZ.NS (ISC-enriched organoids [1]; dose 0.40 uM, ENR+CD 6 days): 0.036 log 2 fold change | Z.LYZ.NS (ISC-enriched organoids [1]; [5]): 0.312 | Dose.FC.LYZ.NS (ISC-enriched organoids [1]; dose 2.00 uM, ENR+CD 6 days): 0.032 log 2 fold change | Z.LYZ.NS (ISC-enriched organoids [1]; [6]): 0.278 | Dose.FC.LYZ.NS (ISC-enriched organoids [1]; dose 10.00 uM, ENR+CD 6 days): −0.197 log 2 fold change | Z.LYZ.NS (ISC-enriched organoids [1]; [7]): −1.713 | Dose.FC.CTG (ISC-enriched organoids [2]; dose 0.08 uM, ENR+CD 6 days): −0.012 log 2 fold change | Z.CTG (ISC-enriched organoids [2]; [4]): −0.028 | Dose.FC.CTG (ISC-enriched organoids [2]; dose 0.40 uM, ENR+CD 6 days): −0.069 log 2 fold change | Z.CTG (ISC-enriched organoids [2]; [5]): −0.165 | Dose.FC.CTG (ISC-enriched organoids [2]; dose 2.00 uM, ENR+CD 6 days): 0.005 log 2 fold change | Z.CTG (ISC-enriched organoids [2]; [6]): 0.012 | Dose.FC.CTG (ISC-enriched organoids [2]; dose 10.00 uM, ENR+CD 6 days): −0.021 log 2 fold change | Z.CTG (ISC-enriched organoids [2]; [7]): −0.050 | Dose.FC.LYZ.S (ISC-enriched organoids [3]; dose 0.08 uM, ENR+CD 6 days): 0.100 log 2 fold change | Dose.FC.LYZ.S (ISC-enriched organoids [3]; dose 0.40 uM, ENR+CD 6 days): −0.001 log 2 fold change | Dose.FC.LYZ.S (ISC-enriched organoids [3]; dose 2.00 uM, ENR+CD 6 days): −0.065 log 2 fold change | Dose.FC.LYZ.S (ISC-enriched organoids [3]; dose 10.00 uM, ENR+CD 6 days): −0.189 log 2 fold change
